These results are taken from patent publication US20180132458A1, “TRANSGENIC ANIMAL MODELS FOR CYSTIC FIBROSIS” (THE REGENTS OF THE UNIVERSITY OF MICHIGAN, priority 2016, published 2018).

The test system of the experiment is forskolin/IBMX-stimulated CFTR Cl current in ileum tissue. Kind of experiment: Short-circuit current of freshly excised ileum tissue measured by Ussing chamber. It is filed as cell-based, rabbit. As to conditions: CFTR+/+ rabbits. Here is the method:
(Panel A) Immunocytochemistry of lungs and small intestines from CFTR+/+ and CFTR−/− rabbits. Red: CFTR; blue: nuclei. (Panel B) Short circuit current measurements of small intestines from CFTR+/+ and CFTR−/− rabbits after treated 1 μM indomethcin.
CFTR expression in the airways and in the small intestines of wild-type and CFTR−/− rabbits was evaluated by immunoflorescence. […] Next, CFTR Cl secretion in these animals were examined. Ileum tissues from CFTR+/+ and CFTR−/− rabbits were used for CFTR functional assay. Short-circuit currents from these tissues with muscle layer on serosal side removed were measured by Ussing chamber. […] This situation was also observed in ferrets and pigs.

For the compound `O=C(CNc1ccc2ccccc2c1)N/N=C/c1cc(Br)c(O)c(Br)c1O` [GlyH101], the forskolin-stimulated current blocked result (GlyH101 at 10 μM) is “Only a small fraction”.

For the compound `CCCCNc1cc(C(=O)O)cc(S(N)(=O)=O)c1Oc1ccccc1` [bumetanide], the forskolin-stimulated current blocked result is “more than 50%”.
